{"source": "patent US20260144862A1", "about": "“MATERIALS AND METHODS TO TREAT EPSTEIN-BARR VIRUS (EBV) AND EBV-INDUCED DISEASES” (Medizinische Universität Wien, priority 2022, published 2026)", "key": {"NKG2A+ NK cells": {"tested_on": "NKG2A+ NK cells", "assay": "NKG2A+ NK cell inhibition assay", "assay_type": "cell-based, human", "conditions": "K562-HLA-E*0101/0101 or K562-HLA-E*0103/0103 target cells pulsed with 300 μM LMP-1 peptide", "description": "For the NKG2A^+ NK cell inhibition experiments, MACS-enriched CD56^+ cells were quickly thawed at 37° C., washed, and pre-activated overnight in RPMI, 10% FCS, 1% L-glutamine (all: Thermo Fisher Scientific), 10 ng/ml IL-12 (PeproTec) and 100 ng/ml IL-18 (Biozym Scientific) at 37° C. CD56^+ NK cells were then harvested by centrifugation at 400×g for 5 minutes and washed once with Opti-MVEM I Reduced Serum Medium (Gibco). The NK cells were then cultured together with peptide pulsed K562-HLA-E*0101/0101 or K562-HLA-E*0103/0103 cells (E:T, 1:2) and 5 μL mouse anti-human CD107-APC-H7 (BD) for 6 h. NK cells were then harvested, fixed with the FIX & PERM Cell Fixation & Cell Permeabilization Kit (Thermo-Scientific) and analysed by flow-cytometry, as described below."}, "NKG2A+ CD8+ T cells": {"tested_on": "NKG2A+ CD8+ T cells", "assay": "NKG2A+ CD8+ T cell inhibition assay", "assay_type": "cell-based, human", "conditions": "K562-HLA-E*0101/0101 or K562-HLA-E*0103/0103 target cells pulsed with 300 μM peptide", "description": "For the CD8^+ T cells experiments, CD8^+ MACS-enriched cells were quickly thawed at 37° C., washed once, and pre-activated overnight in RPMI, 10% FCS, 1% L-glutamine and 20 ng/ml IL-2 (PeproTec) at 37° C. CD8^+ T cells were then harvested by centrifugation (400×g, 5 min) and then washed once with Opti-MEM I Reduced Serum Medium. CD8^+ T cells were then cultured together with peptide pulsed K562-HLA-E*0101/0101 or K562-HLA-E*0103/0103 cells (E:T, 1:2), 1× monensin and 1× brefeldin A for 6 h. […] were harvested, fixed with the FIX & PERM Cell Fixation & Cell Permeabilization Kit and analysed by flow-cytometry, as described below."}, "EBV B95-8 isolate": {"tested_on": "EBV B95-8 isolate", "assay": "Virus (EBV) dissemination assay in K562-CR2-HLA-E cells", "assay_type": "cell-based, Epstein-Barr virus", "conditions": "for viral spread (BZLF1+ K562-CR2-HLA-E cells); effect of peptide on NKG2A+ NK or NKG2A+ CD8+ T cell mediated prevention of the viral spread: 300 μM LMP-1 peptide, 2-14 days of co-culture; for inhibition of NKG2A+ CD8+ T cells in EBV-dissemination assay (granzyme B-expressing cells) / inhibition of NKG2A+ NK cells in EBV-dissemination assay (granzyme B-expressing cells): peptide-pulsed K562-CR2-HLA-E*0103/0103 and K562-CR2-HLA-E*0101/0101 cells; for inhibition of NKG2A+ CD8+ T cells in EBV-dissemination assay (granzyme B-expressing cells): sorted NKG2A+ CD8+ T cells; for inhibition of NKG2A+ NK cells in EBV-dissemination assay (granzyme B-expressing cells): sorted NKG2A+ NK cells", "description": "For the virus dissemination assays, the marmoset B-lymphoblastoid cell line B95-8 was cultured in RPM1 1640 medium supplemented with 20 mM glutamine, 50 µg/ml gentamicin, 0.2 µg/ml amphotericin B and 10% FCS (Thermo-Scientific). Cells were then cultured in the presence of […] (Biomol) for two weeks. EBV was harvested from the supernatant and enriched by ultracentrifugation (30000 U/min, 90 min, 10° C.). The virus stocks were stored at −80° C. in RPMI 1640 medium+10% FCS+10% DMSO (all: Thermo-Scientific). The multiplicity of infection (MOI) of the viral stocks was determined on K562-CR2-HLA-E*0101/0101 and K562-CR2-HLA-E*0103/0103 cells by flow-cytometry.\nRMA-S/HLA-E/LFA-3 cells (kindly provided by Chiara Romagnani, DRFZ, Berlin) were maintained in RPMI-1640+20 mM glutamine+10% FCS+20 μM β-mercaptoethanol+100 U/ml penicillin-streptomycin (all Thermo Fisher)+400 μg/ml hygromycin B+1 mg/ml G418 (both InvivoGen). 2×10^6 RMA-S/LFA3/HLA-E cells were incubated for 16 h at 37° C., 5% CO2, with 300 μM of respective peptides (Peptides&Elephants) in 1 ml serum-free OptiMEM (Thermo-Fisher). Cells were afterwards inactivated using 20 μg/mL Mitomycin C (Sigma Aldrich) at 37° C. for 30 minutes. Peptide pulsed RMA-S/LFA3/HLA-E cells were co-cultured with […] CFSE (Thermo-Fisher) stained CD56^+ or CD8^+ MACS-enriched cells for 7 days in RPMI+10% FCS. Proliferating (CFSE^low) NKG2A^+CD56^+ NK cells, NKG2A^+ CD8^+ T cells or […]-specific, HLA-E-restricted NKG2A^+ or NKG2A^− T cells were then sorted by FACS as described below.\nFresh K562-CR2-HLA-E*0101/0101 and K562-CR2-HLA-E*0103/0103 cells were then inactivated using 20 μg/mL Mitomycin C at 37° C. for 30 minutes and then infected with the EBV B95-8 isolate (MOI=1) for 24 h. The infected cells were then co-cultured together with the sorted NKG2A^+ CD56^+ NK cells, NKG2A^+ CD8^+ T cells or […]-specific, HLA-E-restricted NKG2A^+ or NKG2A^− T cells (E:T, 1:2). In some experiments, 300 μM of respective peptides was also added. At indicated time points, the cells were harvested and analyzed by flow-cytometry, as described below."}, "HLA-E": {"tested_on": "HLA-E", "assay": "LMP-1 dependent HLA-E up-regulation assay in GlialCAM370-389-specific B-cells", "assay_type": "cell-based, human", "conditions": "B-cells from 24 healthy blood donors transfected with LMP-1 peptide, 16 h", "description": "(§1) For the HLA-E stabilization experiments, 5×10^6 viable CFSE stained PBMCs were cultured in RPMI-1640+10% FCS in the presence of 10 μg GlialCAM370-389 ([…]), 10 μg of random 20 amino acid peptides (negative control, GenScript) or without peptides (non-peptide control) and 10 ng/mL IL-2 (Peprotech) at 37° C. Every three days, fresh 10 μg GlialCAM370-389 and 10 ng/mL IL-2 were added. After 7 days of co-culture, GlialCAM370-389-specific B-cells were sorted. 1×10^5 GlialCAM370-389-specific B-cells were then individually transfected with the indicated concentrations of the LMP-1 peptides (Peptides&Elephants) using the Pierce Protein Transfection Reagent according to the manufacturer's instructions (Thermo Fisher). After 16 h, the cells were either fixed and analyzed for HLA-E expression by flow cytometry, as described below, or washed once with Opti-MEM I Reduced Serum Medium (Gibco) and subsequently used in NKG2A^+ NK cell inhibition experiments. For the NKG2A^+ NK cell inhibition experiments, sorted NKG2A^+NKG2C^−NKG2D^− NK cells from 24 healthy blood donors were cultured together with peptide-pulsed GlialCAM370-389 B-cells (E:T, 1:1) for 6 h at 37° C. After co-cultivation, the supernatant was removed, cleared by centrifugation (1000×g, 5 min), and analyzed using IFNγ ELISA according to the manufacturer's recommendations (Thermo Fisher)."}, "[1]": {"tested_on": "NKG2A+ NKG2C−NKG2D− NK cells", "assay": "NKG2A+ NK cell inhibition by LMP-1 peptide-transfected GlialCAM370-389-specific B-cells (IFNγ ELISA)", "assay_type": "cell-based, human", "conditions": "LMP-1 peptide-pulsed GlialCAM370-389-specific B-cells, E:T 1:1, 6 h", "description": "as §1"}, "[2]": {"tested_on": "NKG2A+ NKG2D−NKG2C− NK cells", "assay": "NK cell inhibition assay with GlialCAM370-389-specific cells, with or without NKG2A-blocking antibody (IFNγ ELISA)", "assay_type": "cell-based, human", "conditions": "10 μg/mL antibody, 12 h co-culture", "description": "For the NK cell inhibition assays, GlialCAM370-389-specific (CFSE^low) CD4^+ T-cells, CD8^+ T-cells, and CD138^+ plasma cells were sorted and co-cultured together in an E:T ratio of 1:1 with sorted CD56^+NKG2A^+ NKG2D^−NKG2C^− NK cells from 24 healthy blood donors in OptiMem (Thermo Fisher) for 12 h at 37° C. For some experiments α-NKG2A blocking monoclonal antibodies (Monalizumab, 10 μg/mL, Innate Pharma) was added to the co-culture. The supernatant was removed, cleared by centrifugation (1000×g, 5 min), and then used for IFNγ (both Thermo Fisher) according to the manufacturer's instructions."}}, "data": [{"molecule": "GGDPHLPTL [EBV LMP-1 peptide variant]", "values": [{"measurement": "inhibition of NKG2A+ NK cells", "setting": "NKG2A+ NK cells", "result": "potent inhibition"}, {"measurement": "inhibition of NKG2A+ CD8+ T cells (IFNγ-expressing NKG2A+ CD8+ T cells)", "setting": "NKG2A+ CD8+ T cells", "result": "potent inhibition"}, {"measurement": "viral spread (BZLF1+ K562-CR2-HLA-E cells); effect of peptide on NKG2A+ NK or NKG2A+ CD8+ T cell mediated prevention of the viral spread", "setting": "EBV B95-8 isolate", "result": "increased viral spread"}, {"measurement": "inhibition of NKG2A+ CD8+ T cells in EBV-dissemination assay (granzyme B-expressing cells)", "setting": "EBV B95-8 isolate", "result": "caused the inhibition"}, {"measurement": "inhibition of NKG2A+ NK cells in EBV-dissemination assay (granzyme B-expressing cells)", "setting": "EBV B95-8 isolate", "result": "caused the inhibition"}, {"measurement": "upregulation of HLA-E on the surface of GlialCAM370-389-specific B-cells", "setting": "HLA-E", "result": "stable upregulation of HLA-E"}, {"measurement": "inhibition of NKG2A+ cells (IFNγ concentration in the supernatant)", "setting": "[1]", "result": "potently inhibited"}]}, {"molecule": "GGDPPLPTL [EBV LMP-1 peptide variant]", "values": [{"measurement": "inhibition of NKG2A+ NK cells", "setting": "NKG2A+ NK cells", "result": "potent inhibition"}, {"measurement": "inhibition of NKG2A+ CD8+ T cells (IFNγ-expressing NKG2A+ CD8+ T cells)", "setting": "NKG2A+ CD8+ T cells", "result": "potent inhibition"}, {"measurement": "viral spread (BZLF1+ K562-CR2-HLA-E cells); effect of peptide on NKG2A+ NK or NKG2A+ CD8+ T cell mediated prevention of the viral spread", "setting": "EBV B95-8 isolate", "result": "increased viral spread"}, {"measurement": "inhibition of NKG2A+ CD8+ T cells in EBV-dissemination assay (granzyme B-expressing cells)", "setting": "EBV B95-8 isolate", "result": "caused the inhibition"}, {"measurement": "inhibition of NKG2A+ NK cells in EBV-dissemination assay (granzyme B-expressing cells)", "setting": "EBV B95-8 isolate", "result": "caused the inhibition"}, {"measurement": "upregulation of HLA-E on the surface of GlialCAM370-389-specific B-cells", "setting": "HLA-E", "result": "stable upregulation of HLA-E"}, {"measurement": "inhibition of NKG2A+ cells (IFNγ concentration in the supernatant)", "setting": "[1]", "result": "potently inhibited"}]}, {"molecule": "Monalizumab: α-NKG2A blocking monoclonal antibodies (Innate Pharma) (antibody, chains of the INN, looked up, V domains shown) VH: QVQLVQSGAEVKKPGASVKVSCKASGYTFTSYWMNWVRQAPGQGLEWMGRIDPYDSETHYAQKLQGRVTMTTDTSTSTAYMELRSLRSDDTAVYYCARGGYDFDVGTLYWFFDVWGQGTTVTVSS VL: DIQMTQSPSSLSASVGDRVTITCRASENIYSYLAWYQQKPGKAPKLLIYNAKTLAEGVPSRFSGSGSGTDFTLTISSLQPEDFATYYCQHHYGTPRTFGGGTKVEIK", "values": [{"measurement": "inhibition of NKG2A+ cells by GlialCAM370-389-specific cells from patients with MS when NKG2A-blocking antibody is added", "setting": "[2]", "result": "reversible"}]}]}
